Patent US6709830B2, “Methods for modulating the activation of a lymphocyte expressed G protein coupled receptor involved in cell proliferation, autoimmunity and inflammation” (The Regents of the University of California, priority 1997, dated 2004)
Entries after “also recorded” stand apart in the source; their conditions may differ.

Assays:
G2A = target: T1, G2A (Mus musculus, UniProt Q9Z282); test: ERK MAP kinase assay (phospho-ERK Western blot) in CHO G2A.GFP cells; type: cell-based; conditions: serum starved CHO G2A.GFP cells, LPC 0.01 μM to 10 μM, 10 minutes
T1 construct: expressed in transfected cells; host or cells: MCF 10A (human breast epithelial cells, no endogenous G2A), plasmid pEXV3 G2A.GFP
T1 sequence (Q9Z282 1-382): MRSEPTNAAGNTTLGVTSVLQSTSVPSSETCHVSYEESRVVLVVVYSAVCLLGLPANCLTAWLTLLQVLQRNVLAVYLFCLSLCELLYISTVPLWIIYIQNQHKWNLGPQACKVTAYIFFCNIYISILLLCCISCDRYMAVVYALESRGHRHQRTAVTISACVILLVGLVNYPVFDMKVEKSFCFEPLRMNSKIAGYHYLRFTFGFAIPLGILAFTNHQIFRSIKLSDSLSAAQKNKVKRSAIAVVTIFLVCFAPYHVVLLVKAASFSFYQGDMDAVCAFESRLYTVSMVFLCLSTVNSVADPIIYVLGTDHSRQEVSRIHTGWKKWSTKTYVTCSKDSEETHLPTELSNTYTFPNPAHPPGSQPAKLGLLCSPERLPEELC
Description: Further exploration of the cellular response to LPC was undertaken in Chinese hamster ovary (CHO) cells. Stable lines of G2A expressing CHO cells were derived by infection with retroviruses encoding G2A.GFP (MSCV G2A.GFP). We examined ERK MAP kinase activity in control CHO GFP and CHO G2A.GFP cells in response to varying doses of LPC (0.01 μM to 10 μM).
CHO GFP or CHO G2A.GFP cells were serum starved for 18 hours prior to treatment with LPC for 10 minutes at 37° C. Western blotting was performed to detect activated p44/42 ERK MAP kinase using a specific phospho-ERK antibody (Santa Cruz Biotechnology,).

MCF 10A cells = test: Calcium assay ([Ca2+]i, Fura-2) in parental or pEXV3 GFP transfected MCF 10A cells (control); type: cell-based, human; conditions: SPC or LPC up to 10 μM, LPA 1 μM, PAF 0.1 μM, ATP 20 μM
Description: MCF 10A cells were cultured in specialised glass-bottom dishes (Bioptech, Inc., Butler, Pa.) and loaded with Fura-2/AM ([…]; Molecular Probes) at 37° C. for 30 minutes in HEPES buffered saline (pH 7.4) containing 125 mM NaCl, 5 mM KCl, 1.2 mM MgSO4, 11 mM glucose, 1.8 mM CaCl2, 25 mM HEPES, 0.2% BSA. Loaded cells were washed, placed in HEPES buffeted saline without BSA, and incubated for 30 minutes at ambient temperature ensure dye hydrolysis by cytosolic esterases. Using a dual-wavelength spectrofluorometer (RFK-6002, Photon Technology Int'l, So. Brunswick, N.J.) coupled to an inverted fluorescence microscope (Olympus, IX-70, Lake Success, N.Y.), GFP-positive cells were identified using an excitation wavelength of 488 nm, a dichroic 505 nm long-pass and an emitter bandpass of 535 nm (Chroma Technology, Brattleboro, Vt.). [Ca^2+], measurements were performed on individual GFP-positive cells at excitation wavelengths of 340 nm and 380 nm, and an emission wavelength of 510 nm. Prior to data acquisition, background fluorescence (areas without cells) was measured and automatically subtracted from subsequent measurements. Agonists were diluted in HEPES buffered saline and solution changes accomplished by rapidly aspirating the buffer and replacing it with HEPES buffered saline containing the specific agonist. Fura-2 fluorescence signals (340 nm, 380 nm and the 340/380 ratio) originating from individual GFP-positive cells were continuously monitored at a sampling frequency of 25 Hz and collected using a software package from Photon Technology International (Felix™). Conversion of the 340 nm/380 nm ratio value into [Ca^2+]i was estimated by comparing the cellular fluorescence ratio with ratios acquired using Fura-2 (free acid) in buffers containing known Ca^2+ concentrations. [Ca^2+]i was then calculated as described by Grynkiewicz, et al (Grynkiewicz, G, et al, J Biol Chem, 260: pp3440-3450, 1985). All assays were performed in assay buffers containing 1 mM EGTA to exclude measurement of calcium influx.
To address whether G2A is a lysophospholipid receptor, we examined signalling events in cells ectopically expressing G2A as functional correlates of receptor activation. […] [Ca^2+]i measurements were performed in MCF 10A cells transfected with plasmids encoding green fluorescent protein (GFP) tagged G2A (pEXV3 G2A.GFP) (Kabarowski, J H S, et al, PNAS, 97: pp12109-12114, 2000) or GFP as described (Yan Xu and Derek S. Damron, Methods in Molecular Medicine, 39: Ovarian Cancer: Methods and Protocols, pp611-619, 2000). […] Similarly, dose-dependent responses of G2A.GFP transfected cells to SPC were observed, with an EC50 of approximately 0.4 μM (FIG. 4B). […] Responses to these agonists were not affected by G2A.GFP expression (FIG. 4A, middle and lower panels).

lysophosphatidylcholine [LPC]
ERK MAP kinase activity (G2A): dose-dependent increases; also recorded: activates ERK MAP kinase | [Ca2+]i response in control cells (MCF 10A cells): Neither parental or pEXV3 GFP transfected cells responded
